In one data set the target is serum albumin (Homo sapiens, UniProt P02768). The data set can be described thus: Binding affinity to human serum albumin by HPLC analysis. Type of data set: ADME. Particulars: read-out: PB (converted).
Data set [1] in a line: Permeability of the compound using immobilized artificial membrane. Type of data set: physicochemical.
The target of the next data set is Translocator protein (Rattus norvegicus, UniProt P16257). The data set can be described thus: Displacement of [3H]-PK11195 from TSPO in Sprague-Dawley rat brain homogenates after 90 mins by liquid scintillation counting analysis. The class given is tissue-based. On the technique in general: Displacement assays read how much labelled ligand stays bound in the presence of the test substance.
Sequence of Translocator protein (P16257 whole entry, looked up): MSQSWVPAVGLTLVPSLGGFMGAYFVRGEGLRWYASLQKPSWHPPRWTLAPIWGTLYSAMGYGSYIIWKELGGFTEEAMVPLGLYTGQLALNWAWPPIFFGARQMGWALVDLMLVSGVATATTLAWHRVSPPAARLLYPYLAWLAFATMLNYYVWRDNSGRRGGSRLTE

Sequence of serum albumin (P02768 whole entry): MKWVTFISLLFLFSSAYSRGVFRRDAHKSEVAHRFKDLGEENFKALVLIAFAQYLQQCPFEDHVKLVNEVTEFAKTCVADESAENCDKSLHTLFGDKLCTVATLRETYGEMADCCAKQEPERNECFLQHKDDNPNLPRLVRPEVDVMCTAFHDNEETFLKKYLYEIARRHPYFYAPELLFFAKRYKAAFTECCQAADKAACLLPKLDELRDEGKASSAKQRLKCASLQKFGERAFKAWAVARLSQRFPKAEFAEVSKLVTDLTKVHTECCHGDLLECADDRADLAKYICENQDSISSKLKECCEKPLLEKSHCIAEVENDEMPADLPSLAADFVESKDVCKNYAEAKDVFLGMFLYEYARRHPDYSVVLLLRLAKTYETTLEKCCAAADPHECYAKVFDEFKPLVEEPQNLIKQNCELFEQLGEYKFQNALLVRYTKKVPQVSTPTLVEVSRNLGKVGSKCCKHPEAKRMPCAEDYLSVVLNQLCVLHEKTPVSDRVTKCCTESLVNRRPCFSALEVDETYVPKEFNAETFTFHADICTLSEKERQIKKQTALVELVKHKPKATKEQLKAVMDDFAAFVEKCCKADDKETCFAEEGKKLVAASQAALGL

Regarding `CCC(C)N(C)C(=O)c1cc2ccccc2c(-c2ccccc2Cl)n1` (stereo not drawn) [PK-11195], the fraction unbound at serum albumin was 0.0772. In data set [1], this compound registered a Pm of 0.64.
`CN(C)C(=O)c1nc2ccccc2c(-c2ccccc2)c1CI` had a Ki on Translocator protein of 1.34 µM. Further, the fraction unbound on serum albumin was 0.0498. The compound also had a Pm in data set [1] of 0.55.
In the same order, the values of `O=C(c1cc(-c2ccccc2)c2cc(I)ccc2n1)N1CCOCC1` are 29.9 µM, 0.0462 and 0.55.
Compound `O=C(c1cc(-c2ccccc2)c2cccc(I)c2n1)N1CCOCC1` showed a Ki at Translocator protein of 76.1 µM. The fraction unbound on serum albumin was 0.0181. The Pm in data set [1] was found to be 0.41.
Taken in the same sequence, the figures for `O=C(c1cc(-c2ccccc2)c2cc(F)ccc2n1)N1CCOCC1` were 5.74 µM, 0.122 and 0.25.
On Translocator protein, `CCN(CC)C(=O)c1cc(-c2ccccc2I)c2ccccc2n1` gave a Ki of 0.00501 µM. Further, the fraction unbound at serum albumin is 0.0591. In addition, the Pm in data set [1] came out at 0.67.
In the same order, the values of `O=C(c1nc2ccccc2c(-c2ccccc2)c1CI)N1CCOCC1` are 0.0278 µM, 0.047 and 0.54.
In the same order, the values of `O=C(c1cc(-c2ccccc2I)c2ccccc2n1)N1CCOCC1` are 0.929 µM, 0.0876 and 0.26.

In general, Ki refers to a dissociation constant, usually derived from enzyme kinetics or from competition with a known ligand. Low values mean higher affinity, high ones lower affinity.

Values taken from ChEMBL document CHEMBL3217571, “Structureactivity relationships of novel iodinated quinoline-2-carboxamides for targeting the translocator protein” (Medchemcomm, 2013).
